Test results taken from patent US9932339B2, “Helquats with heteroaromatic substituents, preparation thereof, and use thereof as G-quadruplex stabilizers” (USTAV ORGANICKE CHEMIE A BIOCHEMIE AV CR, V.V.I., priority 2014, dated 2018).
Where two headings read alike, the source gives them in different places.

Experiments:
[1] = system: c-Myc27 oligonucleotide G-quadruplex; test: ECD melting curve of c-Myc27 oligonucleotide G-quadruplex with ligands; format: binding; conditions: ECD at 263 nm; molar ratio oligonucleotide:ligand 1:1 (5 μmol l^−1 each); Li+-cacodylate buffer
Method: ECD spectra were measured on J-815 spectrometer (Jasco, Japan). Measurement settings (Tab. 3), spectra saving and background subtraction was performed in a Spectra Manager software (Jasco, Japan).
For measurement of the temperature dependencies the cuvettes in the cuvette compartment were placed in the Peltier module, the temperature was controlled by the Spectra Manager software. Melting curves were measured at a wavelength which corresponds to the maximum difference in signal intensity of ECD spectra of oligonucleotide at 25 and 95° C., as shown in FIG. 1. Before and after measuring the melting curves, ECD spectra in extreme temperatures were measured, in order to verify the stability of the studied system.
Processing of the spectra was performed using Spectra Manager (Jasco, Japan). The resulting spectra were obtained from the measured sample spectrum after subtraction of background spectrum, which was spectrum of the solvent. Measuring of sample spectrum and background was conducted under identical conditions. ECD spectra are reported as ellipticity, labeled in the CD figures [mdeg], whose numerical value is associated with dimensionless circular dichroism ΔA (CDv=32980 ΔAv). This CD notations preserves conventions of the international journals in which articles from the field are published.
Stock solution of […] was prepared from c-Myc27 oligonucleotide by dissolution in H2O. The cuvette of 1 mm thickness was filled with 7 μl of oligonucleotide solution and 133 μl of Li^+-cacodylate buffer. Oligonucleotide solution in the cuvette was overlayed with mineral oil to measure temperature dependencies without concentration changes due to evaporation of the solvent at higher temperatures.
From stock solutions of the racemic ligands in DMSO at a concentration of […] solutions were prepared at a concentration of 140 μmol l^−1 by dissolving in H2O. Ligands were added to the solution of oligonucleotide under buffer/mineral oil interface using Hamilton microsyringe (5 μl of solution at a concentration of […]). The resulting molar ratio of oligonucleotide:ligand was 1:1.
The cuvette filled with c-Myc27 oligonucleotide solution in Li^+-cacodylate buffer (cc-Myc27=5 μmol l^−1) was first heated for 5 minutes at 95° C., at this temperature ECD spectrum was measured. Then the sample was cooled to 25° C., allowed to stabilize for 10 min and then ECD spectrum was measured again. Then, the melting curve of ECD oligonucleotide at 263 nm was measured in the temperature range 25-95° C. and for verification of the stability of the sample spectra the spectra were measured again at 95 and 25° C. Under the oil layer ligand solution (cligand=5 μmol l^−1) was added to a solution of oligonucleotide, the sample was thoroughly mixed and ECD spectrum measured at 25° C., the melting curve was obtained and again control spectra were measured at 95 and 25° C.
Decomposition of the G-quadruplex structure in the presence of ligands under influence of temperature was monitored at the wavelength corresponding to the maximum difference in signal intensities of ECD oligonucleotide/ligand at 25 and 95° C., i.e. at 263 nm. Thermal stability of G-quadruplex was monitored in the range of 25 to 95° C. and in a molar ratio of oligonucleotide:ligand=1:1. Example of influence of the studied ligand on the stability of G-quadruplex formed from c-Myc27 oligonucleotide is shown in FIG. 2.
The degree of G-quadruplex stabilization was expressed as change of melting temperature caused by the presence of G-quadruplex ligands (ΔTm): ΔTm=Tm,oligonucleotide+ligand−Tm,oligonucleotide (1), • where Tm,oligonucleotide+ligand is melting temperature of molecular system comprising the oligonucleotide and the ligand and Tm,oligonucleotide, the melting temperature of the oligonucleotide itself. Tab. 4 summarizes the changes in melting temperatures of c-Myc27 oligonucleotide G-quadruplex in the presence of studied ligands.

[2] = system: G-quadruplex oligonucleotide Fmyc27T (NHE III1 promoter region of c-myc oncogene); test: FRET melting of G-quadruplex oligonucleotide Fmyc27T with ligands; format: binding; conditions: for ΔTm (° C.) Fmyc27T/ds26 (° C.): helquat 1 μmol·l^−1, oligonucleotide 0.2 μmol·l^−1, 50-fold excess of double-stranded competitor ds26; for ΔTm (° C.) Fmyc27T: helquat 1 μmol·l^−1, oligonucleotide 0.2 μmol·l^−1, without competitor
From the text: (§1) To determine the degree of in vitro interactions of helquats with G-quadruplex(es), the oligonucleotides containing the guanine-rich sequences of human telomere (F21T) and NHE III1 promoter region of c-myc oncogene (Fmyc27T) were used. Both oligonucleotides capable of forming an intramolecular G-quadruplex were end-labeled with suitable fluorophores so as to form donor-acceptor FRET pair (5′-FAM and 3′-TAMRA). If the oligonucleotide is folded into the structure of the G-quadruplex, donor is in close proximity of acceptor and radiationless energy transfer to the acceptor occurs. With increasing temperature of the reaction mixture G-quadruplex structure gradually denatures and thus the donor and acceptor (FAM-TAMRA) drift apart. This leads to an increase in fluorescence of donor (FAM) and a decrease in fluorescence of acceptor (TAMRA).
(§2) The result of measurement is the curve of dependence of the intensity of fluorescence of the donor on the temperature. If the G-quadruplex is stabilized by ligand, melting temperature will increase. Melting temperature of G-quadruplex corresponds to the temperature when 50% of the original amount of the folded G-quadruplex is denatured. The measurement outcome is the difference in the melting temperatures (ΔTm) of the G-quadruplex alone and the G-quadruplex stabilized by ligand. In case of Fmyc27T experiments were performed in cacodylate buffer (10 mmol·l^−1, pH=7.2) with KCl (5 mmol·l^−1) and LiCl (95 mmol·l^−1) oligonucleotide and in case of F21T oligonucleotide in cacodylate buffer (10 mmol·l^−1, pH=7.2) with KCl (25 mmol·l^−1) and LiCl (75 mmol·l^−1).
(§3) Both oligonucleotides were denatured for 5 minutes at 95° C. and subsequently allowed to cool to room temperature (3 hours) in the switched-off thermoblock. The final oligonucleotide concentration in the reaction mixture was 0.2 μmol·l^−1. Test helquats were present at concentrations of 1 μmol·l^−1. The total reaction volume was 30 μl. The melting temperature of the oligonucleotides alone (without the presence of helquats) under these conditions was 58.1±0.2° C. for F21T and 64.7±0.4° C. for Fmyc27T. For determining the selectivity of binding of helquats to G-quadruplex in comparison with the double-stranded DNA, 50-fold excess of double-stranded DNA ([…] unlabeled competitor ds26 forming a hairpin) is added to the reaction mixture. After the addition to the reaction mixture ds26 competes with labeled oligonucleotide (Fmyc27T or F21T) for ligand binding. […] Melting temperature of oligonucleotides alone in the presence of the competitor is 59.4±0.5° C. for F21T and 66.3° C.±0.6° C. for Fmyc27T.
(§4) Fluorescence of FAM donor was measured using real-time PCR apparatus Opticon 2 (excitation 470-505 nm and emission 523-543 nm) in temperature increments of 0.5° C. in the range 25 to 95° C. Evaluation of the sigmoid curves of fluorescence intensity dependent on the temperature were performed in GraphPad Prism 5 (GraphPad Software, Inc., USA). Using nonlinear five parametric regression the inflection point on the curve was calculated that corresponds to the melting temperature (Tm) of the G-quadruplex under the given conditions. The values were obtained from at least three independent measurements.

[3] = system: G-quadruplex oligonucleotide F21T (human telomere); test: FRET melting of G-quadruplex oligonucleotide F21T with ligands; format: binding; conditions: for ΔTm (° C.) F21T/ds26: helquat 1 μmol·l^−1, oligonucleotide 0.2 μmol·l^−1, 50-fold excess of double-stranded competitor ds26; for ΔTm (° C.) F21T: helquat 1 μmol·l^−1, oligonucleotide 0.2 μmol·l^−1, without competitor
From the text: as §1, §2, §3, §4

CCRF-CEM = test: XTT cytotoxicity/proliferation assay, CCRF-CEM; format: cell-based; conditions: Homo sapiens, CCRF-CEM
How it was run: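 CCRF-CEM cells plated at 3000 per well, treated next day for 72 h with helquats over 1-100 μmol·l^−1. Viability by XTT reduction (2 h), absorbance 492 nm with 690 nm reference; IC50 from triplicates, repeated in at least three independent experiments, values above 100 μmol·l^−1 extrapolated.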

HUVEC = test: XTT cytotoxicity/proliferation assay, HUVEC; format: cell-based, human; conditions: Homo sapiens, HUVEC
How it was run: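 HUVEC (passages 3–8, collagen I-coated dishes, E-STIM medium) plated at 3000 cells/well, dosed next day with compounds in water. After 72 h at 37 °C, XTT added for 2 h; absorbance at 492 nm (reference 690 nm) against untreated and medium-only controls.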

c-myc protein = test: Immunodetection of protein c-myc in HGC-27 cell lysates (Western blot); format: cell-based, human; conditions: 50 μmol · l^−1, 24 hour incubation, normalized to β-actin
Method: Determination of changes in c-myc protein expression (transcription factor) in cell lysates prepared from tumor cell line HGC-27 after treatment with test helquats (Tab. 7) was carried out by immunodetection after separation of proteins according to their size by gel electrophoresis (SDS-PAGE) and blotting.
To determine the influence helquats on expression of c-myc protein, the cells were cultured under standard conditions and in the exponential growth phase were seeded into flasks at a density of 25,000 cells/cm^2. The next day selected helquats were added at a concentration of 50 μmol·l^−1. After 24 hour incubation, the cell pellets were obtained and, after addition of RIPA buffer with protease inhibitors (PrIC) and phosphatases (PhIC) (for composition see Tab. 8) cell lysates were prepared. 150 μl of RIPA buffer was used for 10^7 cells. Protein concentrations in the lysates were measured by BCA method. Separation of proteins in the lysates was carried out on a 12% denaturing polyacrylamide gel. The separated proteins were transferred to PVDF membrane by Western blotting.
Incubation with primary mouse monoclonal antibody against the protein c-myc (dilution 1:1000 in “SignalBoost” reagent) was carried out overnight at 4° C., and then with the primary mouse anti-β-actin (1:5000 dilution in 5% milk in TBS-T buffer) at room temperature for 2 hours. Subsequently, the secondary horse monoclonal antibody conjugated to horseradish peroxidase (diluted 1:2000 in 5% milk in TBS-T buffer) binding to mouse IgG antibody was applied. C-myc proteins and β-actin bound to the membrane were visualized using detection kit (SuperSignal® West Femto Maximum Sensitivity Substrate, Cat. No. 34095, Thermo Fisher Scientific, Inc., USA) in the chemiluminescence detection system ImageQuant LAS 4000 Mini (Cat. No. 28-9558-13, GE Healthcare Life Sciences, USA). The amount of protein was quantified by densitometry in Quantity One software. The amount of c-myc in the samples was normalized to β-actin, and subsequently related to a control sample.

[4] = 72 hours of treatment, read-out: IC50 CCRF CEM
[5] = 72 hours of treatment, values above 100 μmol·l^−1 obtained by extrapolation, read-out: IC50 HUVEC

Row | Structure (SMILES) | ΔTm (° C.) [1] | ΔTm (° C.) Fmyc27T/ds26 (° C.) [2] | ΔTm (° C.) Fmyc27T [2] | ΔTm (° C.) F21T/ds26 [3] | ΔTm (° C.) F21T [3] | IC50 (CCRF-CEM; [4]) | IC50 (CCRF-CEM; 72 hours, summary of table 9, read-out: concentrations toxic towards CCRF-CEM cells) | IC50 (HUVEC; [5]) | IC50 (HUVEC; 72 hours, summary of table 9, read-out: concentrations non-toxic towards HUVEC cells) | c-myc protein expression relative to control (control = 100%) (c-myc protein)
1 | Cc1c(C)c2c(c3c1CC[n+]1ccc(/C=C/c4c[nH]c5ncccc45)cc1-3)-c1cc(/C=C/c3c[nH]c4ncccc34)cc[n+]1CC2 [PDB-C8-14, 2,15-bis((E)-2-(1H-pyrrolo[2,3-b]pyridin-3-yl)vinyl)-8,9-dimethyl-6,7,10,11-tetrahydrodipyrido[2,1-a:1′,2′-k][2,9]phenanthroline-5,12-diium trifluoromethanesulfonate] | 5.0 °C | 9.3 °C | 11.5 °C | 5.0 °C | 8.4 °C |  |  |  |  | 
2 | C(=C\c1cc2ccccc2[n+]2c1-c1c(ccc3c1-c1cccc[n+]1CCC3)CCC2)/c1ccc(-c2cccs2)s1.O=S(=O)([O-])C(F)(F)F.O=S(=O)([O-])C(F)(F)F [MSC-C9-16, 19-((E)-2-([2,2′-bithiophen]-5-yl)vinyl)-6,7,8,11,12,13-hexahydropyrido[1′″,2′″:1″,2″]azepino[4″,3″:5′,6′]benzo[1′,2′:3,4]azepino[1,2-a]quinoline-5,14-diium trifluoromethanesulfonate] |  |  |  |  |  | ≤ 10 µM | < 25 µM | ≥ 100 µM | > 100 µM | 36%
3 | Cc1[nH]c2ccccc2c1/C=C/c1cc[n+]2c(c1)-c1c(c(C)c(C)c3c1-c1cc(/C=C/c4c(C)[nH]c5ccccc45)cc[n+]1CC3)CC2 [PDB-C10-11, 8,9-dimethyl-2,15-bis((E)-2-(2-methyl-1H-indol-3-yl)vinyl)-6,7,10,11-tetrahydrodipyrido[2,1-a:1′,2′-k][2,9]phenanthroline-5,12-diium trifluoromethanesulfonate] | 9.8 °C | 13.1 °C | 14.2 °C | 10.7 °C | 13.0 °C |  |  |  |  | 
4 | Brc1ccc2c(/C=C/c3cc4ccccc4[n+]4c3-c3c(ccc5c3-c3cccc[n+]3CCC5)CCC4)c[nH]c2c1.O=S(=O)([O-])C(F)(F)F.O=S(=O)([O-])C(F)(F)F [MSC-C9-18, 19-((E)-2-(6-bromo-1H-indol-3-yl)vinyl)-6,7,8,11,12,13-hexahydropyrido[1′″,2′″:1″,2″]azepino[4″,3″:5′,6′]benzo[1′,2′:3,4]azepino[1,2-a]quinoline-5,14-diium trifluoromethanesulfonate] |  |  |  |  |  | 11 to 25 µM |  | ≥ 51 µM |  | 31%
5 | Cc1c(/C=C/c2cc3ccccc3[n+]3c2-c2c(ccc4c2-c2cccc[n+]2CCC4)CCC3)sc2ccccc12.O=S(=O)([O-])C(F)(F)F.O=S(=O)([O-])C(F)(F)F [MSC-C10-36, 19-((E)-2-(3-methylbenzo[b]thiophen-2-yl)vinyl)-6,7,8,11,12,13-hexahydropyrido[1′″,2′″:1″,2″]azepino[4″,3″:5′,6′]benzo[1′,2′:3,4]azepino[1,2-a]quinoline-5,14-diium trifluoromethanesulfonate] |  |  |  |  |  | ≤ 10 µM |  | ≥ 51 µM |  | 85%
